Assay results as given in patent US9273364B2 (Kyoto University, priority 2010, dated 2016).
Counter-ions that a name gives are not always drawn. Like-named read-outs stand apart in the source and are kept apart here.

System: alternative splicing of a specific gene (GFP/RFP reporter)
Assay: Compound screen with GFP/RFP alternative splicing reporter
Assay type: cell-based
Source text: Strategy of a method for testing whether or not a compound to be tested affects an alternative splicing of a specific gene in a mammalian multicelluar organism is shown in FIG. 14.
The reporter proteins used for the method are GFP and FRP.

[1] = cell count after compound at final conc., Ctrl number of cells 4303-5627
[2] = reporter ratio relative to control = 1, final conc. per compound (μM, 50 ng/mL)

Molecule: Clc1ccc(COC(Cn2ccnc2)c2ccc(Cl)cc2Cl)c(Cl)c1 (racemic) [Miconazole]
- Number of cells (50 ng/mL): 808

Molecule: CCCCC[C@H](O)/C=C/[C@H]1[C@H](O)CC(=O)[C@@H]1CCCCCCC(=O)O [Alprostadil]
- Number of cells (50 ng/mL): 3505

Molecule: N.N.O=C([O-])C1(C(=O)[O-])CCC1.[Pt+2] [Carboplatin]
- GFP/RFP (Ctrl = 1): 1.875
- Number of cells [1]: 1373

Molecule: CC(CCc1ccc(O)cc1)NCCc1ccc(O)c(O)c1 (centres unmarked) [Dobutamine HCl]
- Number of cells [1]: 2991

Molecule: CC(=O)O[C@H]1C(=O)[C@@]2(C)[C@H]([C@H](OC(=O)c3ccccc3)[C@]3(O)C[C@H](OC(=O)[C@H](O)[C@@H](NC(=O)c4ccccc4)c4ccccc4)C(C)=C1C3(C)C)[C@]1(OC(C)=O)CO[C@@H]1C[C@@H]2O [Taxol]
- Number of cells (50 ng/mL): 719

Molecule: C[N+](C)(C)CCOC(=O)CCC(=O)OCC[N+](C)(C)C (racemic) [Succinylcholine]
- Number of cells [1]: 2727

Molecule: COc1ccc(C2CNC(=O)C2)cc1OC1CCCC1 (centres unmarked) [Rolipram]
- Number of cells [1]: 2878

Molecule: CC(C)NCC(O)COc1cccc2ccccc12 (centres unmarked) [Propranolol]
- Number of cells (50 ng/mL): 2641

Molecule: Nc1ncnc2c1ncn2[C@@H]1O[C@H](CO)[C@@H](O)[C@@H]1O (racemic) [Vidarabine]
- Number of cells (50 ng/mL): 1482

Molecule: COc1cc([C@@H]2c3cc4c(cc3[C@@H](O[C@@H]3O[C@@H]5CO[C@@H](C)O[C@H]5[C@H](O)[C@H]3O)[C@H]3COC(=O)[C@H]23)OCO4)cc(OC)c1O [Etoposide]
- Number of cells (50 ng/mL): 055

Molecule: Clc1ccc(CO/N=C(\Cn2ccnc2)c2ccc(Cl)cc2Cl)c(Cl)c1 (racemic) [Oxiconazole nitrate]
- Number of cells (50 ng/mL): 2732

Molecule: CC[C@@]1(O)C(=O)OCc2c1cc1n(c2=O)Cc2cc3ccccc3nc2-1 [Camptothecin]
- Number of cells [1]: 385

Molecule: N[C@@H]1C[C@H]1c1ccccc1 (racemic) [Tranylcypromine]
- ratio in column 11 (head not shown in this continuation table; table sorted by it in descending order; apparently GFP/RFP reporter ratio): 0.7492

Molecule: COC(=O)Nc1nc2ccc([S+]([O-])c3ccccc3)cc2[nH]1 (racemic) [Oxfendazole]
- Number of cells [1]: 1712

Molecule: O=c1[nH]cc(F)c(=O)[nH]1 (racemic) [5-fluorouracil]
- Number of cells (50 ng/mL): 433

Molecule: Bleomycin sulfate
- GFP/RFP (Ctrl = 1): 1.477
- Number of cells [1]: 2702

Molecule: C[C@]12C=CC(=O)C=C1CC[C@@H]1[C@@H]2[C@@H](O)C[C@@]2(C)[C@H]1CC[C@]2(O)C(=O)CO (racemic) [Prednisolone]
- Number of cells (50 ng/mL): 2900

Molecule: COc1c(C)c2c(c(O)c1C/C=C(\C)CCC(=O)O)C(=O)OC2 [Mycophenolic acid]
- Number of cells (50 ng/mL): 1367

Molecule: COc1cc(CNC(=O)CCCC/C=C/C(C)C)ccc1O [Capsaicin]
- Number of cells [1]: 1918

Molecule: C[C@@H]1[C@H](O)[C@@H](C)/C=C/C=C/CC/C=C/C=C/C=C/C=C/C(O[C@H]2O[C@H](C)[C@@H](O)[C@H](N)[C@@H]2O)CC2O[C@](O)(CC(O)C(O)CCC(O)CC(O)CC(O)CC(=O)O[C@H]1C)CC(O)C2C(=O)O (some centres unmarked) [Nystatin]
- GFP/RFP (Ctrl = 1): 1.253
- Number of cells [1]: 3293

Molecule: CCCC(=O)OCC[N+](C)(C)C.[Cl-] [Butyrylcholine Cl]
- count per well with compound (column 9, head not shown; probably cell number; c10 = plate reference): 4016
- reporter fluorescence ratio relative to control (last column of Table 4, head not shown; table sorted by this value): 1.016

Molecule: CC(N)C(O)c1ccccc1 (racemic) [Phenylpropanolamine]
- Number of cells [1]: 2551

Molecule: Cl.O=C(O)c1cn(-c2ccc(F)cc2)c2cc(N3CCNCC3)c(F)cc2c1=O [Satafloxacin HCl]
- Number of cells: 3105
- GFP/RFP (Ctrl = 1) [2]: 1.341

Molecule: CCC(C)n1ncn(-c2ccc(N3CCN(c4ccc(OCC5COC(Cn6cncn6)(c6ccc(Cl)cc6Cl)O5)cc4)CC3)cc2)c1=O (racemic) [Itraconazole]
- Number of cells (50 ng/mL): 344

Molecule: COc1cc(NS(=O)(=O)c2ccc(N)cc2)nc(OC)n1 (racemic) [Sulfadimethoxine]
- Number of cells (50 ng/mL): 3092

Molecule: O=C1CCC(N2C(=O)c3ccccc3C2=O)C(=O)N1 (centres unmarked) [Thaldomide]
- Number of cells: 2622
- GFP/RFP (Ctrl = 1) [2]: 1.271

Molecule: COc1cc2nc(N3CCN(C(=O)c4ccco4)CC3)nc(N)c2cc1OC [Prazosin HCl]
- Number of cells: 2109

Molecule: O=C1[O][Pt]2([NH][C@@H]3CCCC[C@H]3[NH]2)[O]C1=O [Oxaliplatin]
- GFP/RFP (Ctrl = 1): 2.271
- Number of cells [1]: 825

Molecule: Apomorphine r (−)
- GFP/RFP (Ctrl = 1): 1.357
- Number of cells [1]: 3372

Molecule: C[C@]12CC[C@@H]3c4ccc(O)cc4C[C@@H](CCCCCCCCC[S+]([O-])CCCC(F)(F)C(F)(F)F)[C@H]3[C@@H]1CC[C@@H]2O (mixture of isomers) [Fulvestrant]
- Number of cells [1]: 2156

Molecule: NC[C@H](O)c1ccc(O)c(O)c1.O=C(O)C(O)C(O)C(=O)O [Norepinephrine-(+)-tartrate l (−)]
- Number of cells: 4210
- GFP/RFP (Ctrl = 1) [2]: 1.594

Molecule: COC(=O)N/N=C/c1c[n+]([O-])c2ccccc2[n+]1[O-] (racemic) [Carbadox]
- Number of cells [1]: 2293

Molecule: CCCOc1ccc2nc(NC(=O)OC)[nH]c2c1 (racemic) [Oxibendazole]
- Number of cells [1]: 786

Molecule: CCOC(=O)C1=C(C)NC(C)=C(C(=O)OC)C1c1cccc(Cl)c1Cl (centres unmarked) [Felodipine]
- Number of cells (50 ng/mL): 116

Molecule: CC[C@@]1(O)C(=O)OCc2c1cc1n(c2=O)Cc2cc3cc(O)ccc3nc2-1 [10-hydroxycamptothecin]
- GFP/RFP (Ctrl = 1): 3.114
- Number of cells [1]: 541

Molecule: COc1cccc2c1C(=O)c1c(O)c3c(c(O)c1C2=O)C[C@@](O)(C(=O)CO)C[C@@H]3O[C@H]1C[C@H](N)[C@H](O)[C@H](C)O1 [Doxorubicin HCl]
- Number of cells (50 ng/mL): 18

Molecule: NC(=O)c1ncn([C@@H]2O[C@H](CO)[C@@H](O)[C@H]2O)n1 (racemic) [Ribavirin]
- Number of cells: 3140

Molecule: CC(C)CN(C[C@@H](O)[C@H](Cc1ccccc1)NC(=O)O[C@H]1CCOC1)S(=O)(=O)c1ccc(N)cc1 (racemic) [Amprenavir]
- Number of cells: 2564

Molecule: COc1ccc(CCN2CCC(Nc3nc4ccccc4n3Cc3ccc(F)cc3)CC2)cc1 [Astemizole]
- Number of cells (50 ng/mL): 38

Molecule: CC/C(=C(/CC)c1ccc(O)cc1)c1ccc(O)cc1 (racemic) [Diethylstilbestrol]
- Number of cells (50 ng/mL): 542

Molecule: CC(C)Cn1cnc2c(N)nc3ccccc3c21 (racemic) [Imiquimod]
- Number of cells (50 ng/mL): 1944

Molecule: CNC[C@H](O)c1ccc(O)c(O)c1.O=C(O)C(O)C(O)C(=O)O [Epinephrine-(+)-tartrate l (−)]
- Number of cells: 4057
- GFP/RFP (Ctrl = 1) [2]: 1.528

Molecule: Salbutamol sulfate
- Number of cells: 4053
- GFP/RFP (Ctrl = 1) [2]: 1.295

Molecule: Cc1c(Cl)cccc1Nc1ccccc1C(=O)O (racemic) [Tolfenamic acid]
- Number of cells: 2697

Molecule: COc1ncnc(NS(=O)(=O)c2ccc(N)cc2)c1OC (racemic) [Sulfadoxine]
- Number of cells (50 ng/mL): 2876

Molecule: CN(C)CCC(c1ccc(Cl)cc1)c1ccccn1 (racemic) [Chlorpheniramine maleate]
- Number of cells: 3724

Molecule: CC(=O)OC[C@H]1O[C@@H]([S-])[C@H](OC(C)=O)[C@@H](OC(C)=O)[C@@H]1OC(C)=O.CCP(CC)CC.[Au+] [Auranofin]
- GFP/RFP (Ctrl = 1): 4.915
- Number of cells [1]: 1

Molecule: CO[C@H]1C[C@@H]2CC[C@@H](C)[C@@](O)(O2)C(=O)C(=O)N2CCCC[C@H]2C(=O)O[C@H]([C@H](C)C[C@@H]2CC[C@@H](O)[C@H](OC)C2)CC(=O)[C@H](C)/C=C(\C)[C@@H](O)[C@@H](OC)C(=O)[C@H](C)C[C@H](C)/C=C/C=C/C=C/1C [Rapamycin]
- Number of cells [1]: 2046

Molecule: COc1c(C)c2c(c(O)c1C/C=C(\C)CCC(=O)OCCN1CCOCC1)C(=O)OC2 (racemic) [Mycophenolate mofetil]
- Number of cells [1]: 500

Molecule: O=C(O)CCCc1ccc(N(CCCl)CCCl)cc1 (racemic) [Chlorambucil]
- Number of cells [1]: 841

Molecule: COc1cccc2c1C(=O)c1c(O)c3c(c(O)c1C2=O)C[C@@](O)(C(C)=O)C[C@@H]3O[C@H]1C[C@H](N)[C@H](O)[C@H](C)O1 [Daunorubicin HCl]
- Number of cells (50 ng/mL): 3

Molecule: CC(C)NCC(O)c1ccc(O)c(O)c1.Cl (racemic) [Isoproterenol HCl (rac)]
- Number of cells: 3953
- GFP/RFP (Ctrl = 1) [2]: 1.614

Molecule: CCN(CC)CCOc1ccc(C(=C(Cl)c2ccccc2)c2ccccc2)cc1 (racemic) [Clomiphene citrate]
- Number of cells (50 ng/mL): 95

Molecule: COc1ccc2c(c1)[nH]c1c(C)nccc12 [Harmine]
- Number of cells [1]: 537

Molecule: CC[C@@]1(O)C[C@H](O[C@H]2C[C@H](N(C)C)[C@H](O[C@H]3C[C@H](O)[C@H](O[C@H]4CCC(=O)[C@H](C)O4)[C@H](C)O3)[C@H](C)O2)c2c(cc3c(c2O)C(=O)c2c(O)cccc2C3=O)[C@H]1C(=O)OC [Aclarubicin]
- Number of cells [1]: 10

Molecule: COC(=O)C1=C(C)NC(C)=C(C(=O)OC)C1c1ccccc1[N+](=O)[O-] [Nifedipine]
- Number of cells (50 ng/mL): 156

Molecule: CCN(CC)CCCC(C)Nc1c2ccc(Cl)cc2nc2ccc(OC)cc12.Cl.Cl.O.O (centres unmarked) [Quinacrine 2HCl dihydrate]
- Number of cells: 5
- GFP/RFP (Ctrl = 1) [2]: 3.153

Molecule: O=NN(CCCl)C(=O)NC1CCCCC1 (racemic) [Lomustine]
- Number of cells: 1241

Molecule: CO[C@@]12[C@H](COC(N)=O)C3=C(C(=O)C(C)=C(N)C3=O)N1C[C@@H]1N[C@@H]12 [Mitomycin c]
- GFP/RFP (Ctrl = 1): 3.767
- Number of cells [1]: 319

Molecule: CC(=O)O[C@@]12CO[C@@H]1C[C@H](O)[C@@]1(C)C(=O)[C@H](O)C3=C(C)[C@@H](OC(=O)[C@H](O)[C@@H](NC(=O)OC(C)(C)C)c4ccccc4)C[C@@](O)([C@@H](OC(=O)c4ccccc4)[C@H]21)C3(C)C [Docetaxil]
- Number of cells: 1194
- GFP/RFP (Ctrl = 1) [2]: 1.862

Molecule: C=C1/C(=C\C=C2/CCC[C@]3(C)[C@@H]([C@H](C)CCCC(C)C)CC[C@@H]23)C[C@@H](O)C[C@@H]1O (racemic) [Alfacalcidol]
- Number of cells: 861

Molecule: O=c1[nH]c(=O)n([C@H]2C[C@H](O)[C@@H](CO)O2)cc1I (racemic) [Idoxuridine]
- Number of cells (50 ng/mL): 1924

Molecule: CC(C)C(=O)c1c(C(C)C)nn2ccccc12 (racemic) [Ibudilast]
- Number of cells (50 ng/mL): 3018
